Test results published in ChEMBL document CHEMBL1201862, “PubChem BioAssay data set” (2004).
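Cultured in 96-well plates, cells were exposed to test compound for 48 hours across five concentrations. The concentration for 50% growth inhibition is given as GI50.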 Activity calls are given as the source filed them. No stated cut-off is given here; in the data, active = GI50 up to about 1.1 µM and inactive = higher.

Columns and labels:
Test in all cases: NCI anticancer screen, dose series, 48 h
IGROV-1 = test system: IGROV-1
SF-268 = test system: SF-268
TK-10 = test system: TK-10
UACC-62 = test system: UACC-62
SF-295 = test system: SF-295
MCF7 = test system: MCF7
MDA-MB-435 = test system: MDA-MB-435
MDA-N = test system: MDA-N
SR = test system: SR
M14 = test system: M14
EKVX = test system: EKVX
CCRF-CEM = test system: CCRF-CEM
CAKI-1 = test system: CAKI-1
HT-29 = test system: HT-29
COLO 205 = test system: COLO 205
Hs-578T = test system: Hs-578T
A498 = test system: A498
U-251 = test system: U-251
BT-549 = test system: BT-549

SMILES | GI50 (IGROV-1) | GI50 (SF-268) | GI50 (TK-10) | GI50 (UACC-62) | GI50 (SF-295) | GI50 (MCF7) | GI50 (MDA-MB-435) | GI50 (MDA-N) | GI50 (SR) | GI50 (M14) | GI50 (EKVX) | GI50 (CCRF-CEM) | GI50 (CAKI-1) | GI50 (HT-29) | GI50 (COLO 205) | GI50 (Hs-578T) | GI50 (A498) | GI50 (U-251) | GI50 (BT-549)
O=C1C=C/C(=N\N=C(c2ccccc2)c2ccccc2)O1 | > 10 µM (inactive) | > 10 µM (inactive) | > 10 µM (inactive) | > 10 µM (inactive) | > 10 µM (inactive) | > 10 µM (inactive) | > 10 µM (inactive) | > 10 µM (inactive) | > 10 µM (inactive) | > 10 µM (inactive) | > 10 µM (inactive) | 8.49 µM (inactive) | > 10 µM (inactive) | > 10 µM (inactive) | > 10 µM (inactive) | – | – | – | –
[C-]#[N+]C1(C(=O)OCC)CC1 | > 100 µM (inactive) | > 100 µM (inactive) | > 100 µM (inactive) | > 100 µM (inactive) | > 100 µM (inactive) | > 100 µM (inactive) | > 100 µM (inactive) | > 100 µM (inactive) | > 100 µM (inactive) | > 100 µM (inactive) | > 100 µM (inactive) | > 100 µM (inactive) | – | > 100 µM (inactive) | – | > 100 µM (inactive) | > 100 µM (inactive) | > 100 µM (inactive) | –
CC(C)(C)NC1C2CCC(C)(C1O)C2(C)C (stereo not drawn) | > 100 µM (inactive) | > 100 µM (inactive) | > 100 µM (inactive) | 3.67 µM (inactive) | > 100 µM (inactive) | 4.14 µM (inactive) | > 100 µM (inactive) | – | > 100 µM (inactive) | > 100 µM (inactive) | > 100 µM (inactive) | – | > 100 µM (inactive) | > 100 µM (inactive) | > 100 µM (inactive) | – | 2.35 µM (inactive) | > 100 µM (inactive) | > 100 µM (inactive)
Oc1ccc2ccccc2c1/N=N\c1cccc2ccccc12 | 29.9 µM (inactive) | > 100 µM (inactive) | > 100 µM (inactive) | > 100 µM (inactive) | > 100 µM (inactive) | – | > 100 µM (inactive) | > 100 µM (inactive) | < 0.01 µM (active) | 95.9 µM (inactive) | 36 µM (inactive) | 58.1 µM (inactive) | > 100 µM (inactive) | > 100 µM (inactive) | > 100 µM (inactive) | > 100 µM (inactive) | – | > 100 µM (inactive) | –
N#Cc1cccc2c1Sc1ccccc1N2 | 45.1 µM (inactive) | 30.8 µM (inactive) | 17.1 µM (inactive) | 27.2 µM (inactive) | 23.9 µM (inactive) | 30.2 µM (inactive) | 27.3 µM (inactive) | – | 33.7 µM (inactive) | 25.8 µM (inactive) | 19.1 µM (inactive) | 7.48 µM (inactive) | 32.2 µM (inactive) | 32.7 µM (inactive) | 19.8 µM (inactive) | 0.397 µM (active) | 14.8 µM (inactive) | 20 µM (inactive) | 28.4 µM (inactive)
C=C1C(=O)O[C@H]2[C@@H](O)[C@H](C)CCC[C@]3(C)O[C@H]3CC[C@@]3(C)O[C@@H]3C[C@@H]12 | 5.24 µM (inactive) | 6.07 µM (inactive) | – | 2.3 µM (inactive) | 8.55 µM (inactive) | 2.08 µM (inactive) | 3.74 µM (inactive) | – | 1.43 µM (inactive) | 6.11 µM (inactive) | 4.06 µM (inactive) | 1.58 µM (inactive) | 6.22 µM (inactive) | 5.66 µM (inactive) | 3.01 µM (inactive) | 7.59 µM (inactive) | 7.33 µM (inactive) | 8.57 µM (inactive) | 1.24 µM (inactive)
CS/C(=N/S(=O)(=O)c1ccc(Cl)cc1)NCCCN/C(=N\S(=O)(=O)c1ccc(Cl)cc1)SC | 30.4 µM (inactive) | 9.48 µM (inactive) | 14.5 µM (inactive) | 16.9 µM (inactive) | 12.7 µM (inactive) | 8.28 µM (inactive) | 9.42 µM (inactive) | 12.1 µM (inactive) | 4.34 µM (inactive) | 15.4 µM (inactive) | 12.7 µM (inactive) | 16.7 µM (inactive) | 23.3 µM (inactive) | 22.8 µM (inactive) | 21.5 µM (inactive) | – | 8.43 µM (inactive) | 29.4 µM (inactive) | –
CCN(CC)CCC1CCCCN1CC(=O)N1c2cc(Cl)ccc2NC(=O)CC1C (stereo not drawn) | > 100 µM (inactive) | > 100 µM (inactive) | > 100 µM (inactive) | > 100 µM (inactive) | > 100 µM (inactive) | > 100 µM (inactive) | > 100 µM (inactive) | > 100 µM (inactive) | – | > 100 µM (inactive) | > 100 µM (inactive) | > 100 µM (inactive) | > 100 µM (inactive) | > 100 µM (inactive) | > 100 µM (inactive) | > 100 µM (inactive) | > 100 µM (inactive) | > 100 µM (inactive) | –
COC(=O)C1CCC(=O)N1C(c1cc(OC)c(OC)c(OC)c1)c1cccc2ccccc12 (stereo not drawn) | > 100 µM (inactive) | 15.3 µM (inactive) | > 100 µM (inactive) | 45 µM (inactive) | > 100 µM (inactive) | > 100 µM (inactive) | 63.2 µM (inactive) | 60.5 µM (inactive) | 32.7 µM (inactive) | > 100 µM (inactive) | > 100 µM (inactive) | – | – | 35.6 µM (inactive) | – | 6.44 µM (inactive) | > 100 µM (inactive) | > 100 µM (inactive) | –
O=[N+]([O-])/C(C(Cl)=C(Cl)Cl)=C1\NCCO1 | > 100 µM (inactive) | > 100 µM (inactive) | > 100 µM (inactive) | 35.7 µM (inactive) | > 100 µM (inactive) | > 100 µM (inactive) | > 100 µM (inactive) | > 100 µM (inactive) | > 100 µM (inactive) | > 100 µM (inactive) | > 100 µM (inactive) | 22.9 µM (inactive) | > 100 µM (inactive) | > 100 µM (inactive) | > 100 µM (inactive) | 47.5 µM (inactive) | > 100 µM (inactive) | > 100 µM (inactive) | –
CCOP(=O)(OCC)C1CC(O)CN1OC(=O)C(C)(C)C (stereo not drawn) | > 100 µM (inactive) | > 100 µM (inactive) | > 100 µM (inactive) | > 100 µM (inactive) | > 100 µM (inactive) | > 100 µM (inactive) | > 100 µM (inactive) | > 100 µM (inactive) | > 100 µM (inactive) | > 100 µM (inactive) | > 100 µM (inactive) | > 100 µM (inactive) | – | > 100 µM (inactive) | > 100 µM (inactive) | > 100 µM (inactive) | > 100 µM (inactive) | > 100 µM (inactive) | –
O=C(N/N=C1/C(=O)N(c2ccc(Cl)cc2Cl)C(=O)C(=O)C1c1nc2ccccc2o1)c1ccccc1O (stereo not drawn) | 39.9 µM (inactive) | 41.2 µM (inactive) | 38.9 µM (inactive) | 20.4 µM (inactive) | – | – | – | – | 47.2 µM (inactive) | 28.3 µM (inactive) | 45.7 µM (inactive) | 47.6 µM (inactive) | 34.8 µM (inactive) | 60.7 µM (inactive) | 52.7 µM (inactive) | – | 31.3 µM (inactive) | > 10 µM (inactive) | –
Oc1ccc2c(c1)CC[N+]1=C2CCC2CCCC21 (stereo not drawn) [QUINDONIUM BROMIDE] | > 100 µM (inactive) | > 100 µM (inactive) | > 100 µM (inactive) | > 100 µM (inactive) | > 100 µM (inactive) | – | – | – | – | > 100 µM (inactive) | > 100 µM (inactive) | – | > 100 µM (inactive) | > 100 µM (inactive) | > 100 µM (inactive) | – | – | – | –
C/C=C/C(C/C=C(\C)CO[Si](C)(C)C(C)(C)C)O[Si](C)(C)C(C)(C)C (stereo not drawn) | > 100 µM (inactive) | > 100 µM (inactive) | > 100 µM (inactive) | > 100 µM (inactive) | > 100 µM (inactive) | > 100 µM (inactive) | > 100 µM (inactive) | > 100 µM (inactive) | > 100 µM (inactive) | > 100 µM (inactive) | > 100 µM (inactive) | > 100 µM (inactive) | > 100 µM (inactive) | > 100 µM (inactive) | > 100 µM (inactive) | > 100 µM (inactive) | > 100 µM (inactive) | – | –
O=[N+]([O-])c1cccc(Nc2nc(Cl)nc(Cl)n2)c1 | – | > 100 µM (inactive) | – | > 100 µM (inactive) | > 100 µM (inactive) | – | – | – | > 100 µM (inactive) | > 100 µM (inactive) | > 100 µM (inactive) | > 100 µM (inactive) | > 100 µM (inactive) | > 100 µM (inactive) | > 100 µM (inactive) | – | – | > 100 µM (inactive) | –
Cn1c2ccccc2c2nc3ccccc3c(Cl)c21 | > 100 µM (inactive) | > 100 µM (inactive) | > 100 µM (inactive) | 92.5 µM (inactive) | > 100 µM (inactive) | > 100 µM (inactive) | > 100 µM (inactive) | – | > 100 µM (inactive) | > 100 µM (inactive) | – | > 100 µM (inactive) | > 100 µM (inactive) | > 100 µM (inactive) | > 100 µM (inactive) | > 100 µM (inactive) | > 100 µM (inactive) | 55.8 µM (inactive) | > 100 µM (inactive)
COC(=O)[C@H]1CC(=O)C=C2CCCC21 (stereo partly drawn) | > 100 µM (inactive) | > 100 µM (inactive) | > 100 µM (inactive) | > 100 µM (inactive) | > 100 µM (inactive) | – | – | – | – | > 100 µM (inactive) | > 100 µM (inactive) | > 100 µM (inactive) | > 100 µM (inactive) | > 100 µM (inactive) | > 100 µM (inactive) | – | > 100 µM (inactive) | > 100 µM (inactive) | –
